Data reported in patent US20040082589A1, “Quinoline derivatives as nk-3 and nk-2 antagonists” (priority 2000, published 2004).

Row | Compound | melting point
1 | C[C@H](NC(=O)c1c(CN2CCN(C(=O)/C=C/C(=O)O)CC2)c(-c2ccccc2)nc2ccccc12)c1ccccc1 [Example 9, (E)-4-Oxo-4-{4-[2-phenyl-4-((S)-1-phenyl-ethylcarbamoyl)-quinolin-3-ylmethyl]-piperazin-1-yl}-but-2-enoic acid] | 214 to 215 °C
2 | C[C@H](NC(=O)c1c(CN2CCN(C(=O)CCCC(=O)O)CC2)c(-c2ccccc2)nc2ccccc12)C1CCCCC1 [Example 11, 5-{4-[4-((S)-1-Cyclohexyl-ethylcarbamoyl)-2-phenyl-quinolin-3-ylmethyl]-piperazin-1-yl}-5-oxo-pentanoic acid] | 125 to 130 °C
3 | C[C@H](NC(=O)c1c(CN2CCN(C(=O)CCN)CC2)c(-c2ccccc2)nc2ccccc12)C1CCCCC1 [Example 21, 3-[4-(3-Amino-propanoyl)-piperazin-1-ylmethyl]-2-phenyl-quinoline-4-carboxylic acid ((S)-1-cyclohexyl-ethyl)-amide] | 164 to 166 °C
4 | C[C@H](NC(=O)c1c(CN2CCN(C(=O)CC(C)(C)CC(=O)O)CC2)c(-c2ccccc2)nc2ccccc12)c1ccccc1 [Example 6, 3,3-Dimethyl-5-oxo-5-{4-[2-phenyl-4-((S)-1-phenyl-ethylcarbamoyl)-quinolin-3-ylmethyl]-piperazin-1-yl}-pentanoic acid] | 213 to 215 °C
5 | CCOC(=O)C(C(=O)N1CCN(Cc2c(-c3ccccc3)nc3ccccc3c2C(=O)N[C@@H](C)C2CCCCC2)CC1)c1ccccc1 (stereo partly drawn) [Example 16, 3-{4-[4-((S)-1-Cyclohexyl-ethylcarbamoyl)-2-phenyl-quinolin-3-ylmethyl]-piperazin-1-yl}-3-oxo-2-phenyl-propionic acid ethyl ester] | 125 to 129 °C
6 | C[C@H](NC(=O)c1c(CN2CCN(C(=O)c3nccnc3C(=O)O)CC2)c(-c2ccccc2)nc2ccccc12)C1CCCCC1 [Example 12, 3-(1-{4-[4-((S)-1-Cyclohexyl-ethylcarbamoyl)-2-phenyl-quinolin-3-ylmethyl]-piperazin-1-yl}-methanoyl)-pyrazine-2-carboxylic acid] | 162 to 165 °C
7 | C[C@H](NC(=O)c1c(CN2CCN(C(=O)c3ccc(C(=O)O)cc3)CC2)c(-c2ccccc2)nc2ccccc12)C1CCCCC1 [Example 15, 4-(1-{4-[4-((S)-1-Cyclohexyl-ethylcarbamoyl)-2-phenyl-quinolin-3-ylmethyl]-piperazin-1-yl}-methanoyl)-benzoic acid] | 185 to 188 °C
8 | C[C@H](NC(=O)c1c(CN2CCN(C(=O)c3cccc(C(=O)O)c3)CC2)c(-c2ccccc2)nc2ccccc12)C1CCCCC1 [Example 13, 3-(1-{4-[4-((S)-1-Cyclohexyl-ethylcarbamoyl)-2-phenyl-quinolin-3-ylmethyl]-piperazin-1-yl}-methanoyl)-benzoic acid] | 179 to 180 °C
9 | C[C@H](NC(=O)c1c(CN2CCN(C(=O)[C@@H]3C[C@H]3C(=O)O)CC2)c(-c2ccccc2)nc2ccccc12)c1ccccc1 (mixture of isomers) [Example 7, Trans 2-(1-{4-[2-Phenyl-4-((S)-1-phenyl-ethylcarbamoyl)-quinolin-3-ylmethyl]-piperazin-1-yl}-methanoyl)-cyclopropanecarboxylic acid] | 135 to 145 °C
10 | C[C@H](NC(=O)c1c(CN2CCN(C(=O)CC(=O)O)CC2)c(-c2ccccc2)nc2ccccc12)C1CCCCC1 [Example 10, 3-{4-[4-((S)-1-Cyclohexyl-ethylcarbamoyl)-2-phenyl-quinolin-3-ylmethyl]-piperazin-1-yl}-3-oxo-propionic acid] | 150 to 155 °C
11 | C[C@H](NC(=O)c1c(CN2CCN(C(=O)c3cncc(C(=O)O)c3)CC2)c(-c2ccccc2)nc2ccccc12)C1CCCCC1 [Example 14, 5-(1-{4-[4-((S)-1-Cyclohexyl-ethylcarbamoyl)-2-phenyl-quinolin-3-ylmethyl]-piperazin-1-yl}-methanoyl)-nicotinic acid] | 250 to 255 °C (dec.)
12 | C[C@H](NC(=O)c1c(CN2CCN(C(=O)[C@H]3CCCC[C@H]3C(=O)O)CC2)c(-c2ccccc2)nc2ccccc12)c1ccccc1 (mixture of isomers) [Example 8, Cis 2-(1-{4-[2-Phenyl-4-((S)-1-phenyl-ethylcarbamoyl)-quinolin-3-ylmethyl]-piperazin-1-yl}-methanoyl)-cyclohexanecarboxylic acid] | 130 to 140 °C
13 | C[C@H](NC(=O)c1c(CN2CCN(C(=O)CCN3CCCCC3)CC2)c(-c2ccccc2)nc2ccccc12)C1CCCCC1 [Example 24, 2-Phenyl-3-[4-(3-piperidin-1-yl-propanoyl)-piperazin-1-ylmethyl]-quinoline-4-carboxylic acid ((S)-1-cyclohexyl-ethyl)-amide] | 120 to 122 °C
14 | C[C@H](NC(=O)c1c(CN2CCN(C=O)CC2)c(-c2ccccc2)nc2ccccc12)C1CCCCC1 [Example 18, 3-(4-Formyl-piperazin-1-ylmethyl)-2-phenyl-quinoline-4-carboxylic acid ((S)-1-cyclohexyl-ethyl)-amide] | 116 to 119 °C
15 | CCNCCC(=O)N1CCN(Cc2c(-c3ccccc3)nc3ccccc3c2C(=O)N[C@@H](C)C2CCCCC2)CC1 [Example 22, 3-[4-(3-Ethylamino-propanoyl)-piperazin-1-ylmethyl]-2-phenyl-quinoline-4-carboxylic acid ((S)-1-cyclohexyl-ethyl)-amide] | 125 °C
